One may read the IC50 as the concentration that gives 50% inhibition.

This note sets out measurements from patent US8575163B2, “Pyrrolopyridinylpyrimidin-2-ylamine derivatives” (Merck Patent GmbH, priority 2009, dated 2013).

SMILES strings stand for the structures.

The target in this assay is T1, PDK1 (Homo sapiens, UniProt O15530).
T1 construct: His6 (N)
T1 sequence (O15530 51-556 limits assumed): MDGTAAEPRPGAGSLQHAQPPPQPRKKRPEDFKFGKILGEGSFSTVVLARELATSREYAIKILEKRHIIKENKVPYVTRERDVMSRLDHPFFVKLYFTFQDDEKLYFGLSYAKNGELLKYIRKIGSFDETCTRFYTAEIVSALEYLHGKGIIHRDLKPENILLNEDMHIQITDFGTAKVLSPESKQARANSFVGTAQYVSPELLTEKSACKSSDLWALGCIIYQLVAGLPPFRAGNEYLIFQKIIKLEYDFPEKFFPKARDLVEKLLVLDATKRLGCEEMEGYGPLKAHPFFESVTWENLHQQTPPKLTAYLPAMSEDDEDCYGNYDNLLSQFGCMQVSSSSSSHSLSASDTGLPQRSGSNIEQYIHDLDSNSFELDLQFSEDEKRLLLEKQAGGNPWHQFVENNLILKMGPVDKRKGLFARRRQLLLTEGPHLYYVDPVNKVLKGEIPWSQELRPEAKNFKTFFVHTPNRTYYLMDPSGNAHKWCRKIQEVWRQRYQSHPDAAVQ
The experiment in a line: Test for the inhibition of PDK1 (flashplate, 33P-ATP). To be noted: His6-PDK1 3.4 nM, 4 μM ATP, 30° C., 60 min. It is filed as biochemical. The method in brief: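 His6-PDK1(1-50) (3.4 nM) and a biotinylated peptide substrate (400 nM) were incubated 60 min at 30° C with 4 μM ATP containing ^33P-ATP and test compound. Incorporated radioactivity was counted after subtracting a 100 nM staurosporine blank and expressed as % of control; IC50 derived from these.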

On to `CNC(=O)CCn1cc(-c2cnc3[nH]cc(-c4cc(C(C)(OCOC)c5ccccc5)nc(N)n4)c3c2)cn1` (stereo not drawn) [A75, 3-(4-{3-[2-amino-6-(1-methoxymethoxy-1-phenylethyl)pyrimidin-4-yl]-1H-pyrrolo[2,3-b]pyridin-5-yl}pyrazol-1-yl)-N-methylpropionamide], for which the IC50 stood at 79 nM.
`CCOC(C)(c1ccccc1)c1cc(-c2c[nH]c3ncc(-c4cnn(C)c4)cc23)nc(N)n1` (stereo not drawn) [A76, 4-(1-ethoxy-1-phenylethyl)-6-[5-(1-methyl-1H-pyrazol-4-yl)-1H-pyrrolo-[2,3-b]pyridin-3-yl]pyrimidin-2-ylamine] yielded a 50% inhibitory concentration (IC50) of 79 nM.
`COCOC(C)(c1ccccc1)c1cc(-c2c[nH]c3ncc(-c4cnn(CCC(=O)O)c4)cc23)nc(N)n1` (stereo not drawn) [A77, 3-(4-{3-[2-amino-6-(1-methoxymethoxy-1-phenylethyl)pyrimidin-4-yl]-1H-pyrrolo[2,3-b]pyridin-5-yl}pyrazol-1-yl)propionic acid] returned an IC50 of 43 nM.
Next, `CCOC(=O)CCn1cc(-c2cnc3[nH]cc(-c4cc(C(C)(OCOC)c5ccccc5)nc(N)n4)c3c2)cn1` (stereo not drawn) [A78, ethyl 3-(4-{3-[2-amino-6-(1-methoxymethoxy-1-phenylethyl)pyrimidin-4-yl]-1H-pyrrolo[2,3-b]pyridin-5-yl}pyrazol-1-yl)propionate]: 61 nM; `C=C(CF)n1cc(-c2cnc3[nH]cc(-c4cc(C(C)(O)c5ccccc5)nc(N)n4)c3c2)cn1` (stereo not drawn) [A79, 1-(2-amino-6-{5-[1-(1-fluoromethylvinyl)-1H-pyrazol-4-yl]-1H-pyrrolo[2,3-b]-pyridin-3-yl}pyrimidin-4-yl)-1-phenylethanol]: 68 nM; `CC(O)(c1ccccc1)c1cc(-c2c[nH]c3ncc(-c4cnn(C(CF)CF)c4)cc23)nc(N)n1` (stereo not drawn) [A80, 1-(2-amino-6-{5-[1-(2-fluoro-1-fluoromethylethyl)-1H-pyrazol-4-yl]-1H-pyrrolo[2,3-b]pyridin-3-yl}pyrimidin-4-yl)-1-phenylethanol]: 17 nM.
In the case of `CC(O)(c1ccccc1)c1cc(-c2c[nH]c3ncc(-c4cnn(CCF)c4)cc23)nc(N)n1` (stereo not drawn) [A81, 1-(2-amino-6-{5-[1-(2-fluoroethyl)-1H-pyrazol-4-yl]-1H-pyrrolo[2,3-b]pyridin-3-yl}pyrimidin-4-yl)-1-phenylethanol], 19 nM corresponded to half-maximal inhibition (IC50).
Under `CC(C)C(O)(c1ccccc1)c1cc(-c2c[nH]c3ncc(-c4cnn(C)c4)cc23)nc(N)n1` (stereo not drawn) [A82, 1-{2-amino-6-[5-(1-methyl-1H-pyrazol-4-yl)-1H-pyrrolo[2,3-b]pyridin-3-yl]-pyrimidin-4-yl}-2-methyl-1-phenylpropan-1-ol] stands 78 nM; under `CC(O)(c1ccccc1)c1cc(-c2c[nH]c3ncc(-c4cnn(CC5CC5)c4)cc23)nc(N)n1` (stereo not drawn) [A83, 1-{2-amino-6-[5-(1-cyclopropylmethyl-1H-pyrazol-4-yl)-1H-pyrrolo[2,3-b]-pyridin-3-yl]pyrimidin-4-yl}-1-phenylethanol], 59 nM.
For the compound `CC(O)(c1ccccc1)c1cc(-c2c[nH]c3ncc(-c4cnn(CC(F)F)c4)cc23)nc(N)n1` (stereo not drawn) [A84, 1-(2-amino-6-{5-[1-(2,2-difluoroethyl)-1H-pyrazol-4-yl]-1H-pyrrolo[2,3-b]-pyridin-3-yl}pyrimidin-4-yl)-1-phenylethanol], half-maximal inhibition (IC50) required 50 nM.
`Cn1cc(-c2cnc3[nH]cc(-c4cc(C(O)(c5ccccc5)C5CCCC5)nc(N)n4)c3c2)cn1` (stereo not drawn) [A85, {2-amino-6-[5-(1-methyl-1H-pyrazol-4-yl)-1H-pyrrolo[2,3-b]pyridin-3-yl]-pyrimidin-4-yl}cyclopentylphenylmethanol] showed an IC50 of 52 nM.
For `CC(O)(c1ccccc1)c1cc(-c2c[nH]c3ncc(Br)cc23)nc(N)n1` (stereo not drawn) [A86, 1-[2-amino-6-(5-bromo-1H-pyrrolo[2,3-b]pyridin-3-yl)pyrimidin-4-yl]-1-phenylethanol], the half-inhibitory concentration (IC50) was 89 nM.
Consider `CCCC(C)(O)c1cc(-c2c[nH]c3ncc(-c4cnn(C(C)C)c4)cc23)nc(N)n1` (stereo not drawn) [A87, 2-{2-amino-6-[5-(1-isopropyl-1H-pyrazol-4-yl)-1H-pyrrolo[2,3-b]pyridin-3-yl]-pyrimidin-4-yl}pentan-2-ol], for which the half-inhibitory concentration (IC50) came out at 16 nM.
The compound `CC(C)n1cc(-c2cnc3[nH]cc(-c4cc(C(C)(O)C(C)C)nc(N)n4)c3c2)cn1` (stereo not drawn) [A88, 2-{2-amino-6-[5-(1-isopropyl-1H-pyrazol-4-yl)-1H-pyrrolo[2,3-b]pyridin-3-yl]-pyrimidin-4-yl}-3-methylbutan-2-ol] displayed a half-inhibitory concentration (IC50) of 28 nM.
Next, `Cc1ccccc1C(C)(O)c1cc(-c2c[nH]c3ncc(-c4cnn(CCO)c4)cc23)nc(N)n1` (stereo not drawn) [A89, 1-(2-amino-6-{5-[1-(2-hydroxyethyl)-1H-pyrazol-4-yl]-1H-pyrrolo[2,3-b]-pyridin-3-yl}pyrimidin-4-yl)-1-o-tolylethanol]: 19 nM; `Cc1cccc(C(C)(O)c2cc(-c3c[nH]c4ncc(-c5cnn(CCO)c5)cc34)nc(N)n2)c1` (stereo not drawn) [A94, 1-(2-amino-6-{5-[1-(2-hydroxyethyl)-1H-pyrazol-4-yl]-1H-pyrrolo[2,3-b]-pyridin-3-yl}pyrimidin-4-yl)-1-m-tolylethanol]: 60 nM; `CNc1nc(-c2c[nH]c3ncc(-c4cnn(CCO)c4)cc23)cc(C(C)(O)c2ccccc2)n1` (stereo not drawn) [A95, 1-(6-{5-[1-(2-hydroxyethyl)-1H-pyrazol-4-yl]-1H-pyrrolo[2,3-b]pyridin-3-yl}-2-methylaminopyrimidin-4-yl)-1-phenylethanol]: 18 nM.
Consider `CCC(O)(c1ccccc1)c1cc(-c2c[nH]c3ncc(-c4cnn(CCO)c4)cc23)nc(N)n1` (stereo not drawn) [A98, 1-(2-amino-6-{5-[1-(2-hydroxyethyl)-1H-pyrazol-4-yl]-1H-pyrrolo[2,3-b]-pyridin-3-yl}pyrimidin-4-yl)-1-phenylpropan-1-ol], for which the half-maximal inhibitory concentration (IC50) was found to be 12 nM.
As for `CC(O)(c1ccccc1)c1cc(-c2c[nH]c3ncc(-c4cnn(CCO)c4)cc23)nc(N)n1` (stereo not drawn) [A99, 1-(2-amino-6-{5-[1-(2-hydroxyethyl)-1H-pyrazol-4-yl]-1H-pyrrolo[2,3-b]-pyridin-3-yl}pyrimidin-4-yl)-1-phenylethanol], the half-inhibitory concentration (IC50) was 41 nM.
Consider `CC(O)(c1ccccc1)c1cc(-c2c[nH]c3ncc(-c4cncnc4)cc23)nc(N)n1` (stereo not drawn) [A100, 1-[2-amino-6-(5-pyrimidin-5-yl-1H-pyrrolo[2,3-b]pyridin-3-yl)pyrimidin-4-yl]-1-phenylethanol], for which the IC50 came out at 1700 nM.
Take `CC(O)(c1ccccc1)c1cc(-c2c[nH]c3ncc(-c4ccnnc4)cc23)nc(N)n1` (stereo not drawn) [A101, 1-[2-amino-6-(5-pyridazin-4-yl-1H-pyrrolo[2,3-b]pyridin-3-yl)pyrimidin-4-yl]-1-phenylethanol]: the IC50 is 740 nM.
Regarding `COCOC(C)(c1ccnc(C)c1)c1cc(-c2c[nH]c3ncc(-c4cnn(C)c4)cc23)nc(N)n1` (stereo not drawn) [A108, 4-[1-methoxymethoxy-1-(2-methylpyridin-4-yl)ethyl]-6-[5-(1-methyl-1H-pyrazol-4-yl)-1H-pyrrolo[2,3-b]pyridin-3-yl]pyrimidin-2-ylamine], the half-maximal inhibitory concentration (IC50) amounted to 49 nM.
Compound `Cn1cc(-c2cnc3[nH]cc(-c4cc(C(C)(O)c5ccnnc5)nc(N)n4)c3c2)cn1` (stereo not drawn) [A109, 1-{2-amino-6-[5-(1-methyl-1H-pyrazol-4-yl)-1H-pyrrolo[2,3-b]pyridin-3-yl]-pyrimidin-4-yl}-1-pyridazin-4-ylethanol] registered a half-maximal inhibitory concentration (IC50) of 7.8 nM.
On to `Cn1cc(-c2cnc3[nH]cc(-c4cc(C(C)(O)c5ccc(=O)[nH]c5)nc(N)n4)c3c2)cn1` (stereo not drawn) [A111, 5-(1-{2-amino-6-[5-(1-methyl-1H-pyrazol-4-yl)-1H-pyrrolo[2,3-b]pyridin-3-yl]-pyrimidin-4-yl}-1-hydroxyethyl)-1H-pyridin-2-one], for which the half-maximal inhibitory concentration (IC50) came to 26 nM.
